{
  "source": "patent US20060079453A1",
  "about": "“Hla binding peptides and their uses” (priority 2002, published 2006)",
  "experiment_in_all_cases": "biochemical",
  "key": {"[1]": {"biological_target": "HLA-DQ DQA1*0301/B*0301 (DQ7) (Homo sapiens, UniProt P01909+P01920, A209T/C70Q/DUP78-78/E183D/F237L/G63E/I129T/K197E/L178F/L74F/L98V/Q57E/Q76R/S185I/S97I/T49S/V73L)", "assay_type": "binding"}, "[2]": {"biological_target": "HLA-B*0702 (Homo sapiens, UniProt P01889)", "assay_type": "binding", "settings": "B*0702 binding affinity (IC50)"}, "[3]": {"biological_target": "H-2Dd (Mus musculus, UniProt P01900)", "sequence (P01900 25-365)": "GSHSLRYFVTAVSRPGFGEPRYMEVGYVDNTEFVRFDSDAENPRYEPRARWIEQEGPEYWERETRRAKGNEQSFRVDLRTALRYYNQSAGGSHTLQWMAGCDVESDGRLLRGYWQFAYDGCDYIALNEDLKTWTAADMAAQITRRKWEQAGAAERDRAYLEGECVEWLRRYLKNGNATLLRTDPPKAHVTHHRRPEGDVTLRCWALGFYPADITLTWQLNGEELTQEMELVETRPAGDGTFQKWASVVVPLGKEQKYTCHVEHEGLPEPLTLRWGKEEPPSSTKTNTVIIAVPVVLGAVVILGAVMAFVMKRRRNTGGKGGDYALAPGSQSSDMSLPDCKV", "sequence (P61769 21-119, further chain)": "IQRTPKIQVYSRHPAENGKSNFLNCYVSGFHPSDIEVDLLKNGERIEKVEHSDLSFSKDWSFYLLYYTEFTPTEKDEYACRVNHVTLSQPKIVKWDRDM", "assay_type": "binding, murine"}, "[4]": {"biological_target": "HLA-B*3501 (Homo sapiens, UniProt P01889, A329T/A93T/A95T/C349S/D201E/D98Y/E176V/E187L/E204Q/E69T/I218V/K202T/L119I/Q94N/R155S/R180L/S121R/S35A/S48A/T118I/V127L/V306I/V36M/Y140S/Y91F)", "settings": "B*3501 binding affinity (IC50)"}, "[5]": {"biological_target": "HLA-B*5101 (Homo sapiens, UniProt P01889, A329T/A93T/A95T/C349S/D138N/D201E/D98Y/E187L/E204Q/E69T/G107R/I218V/K202T/L105A/L119W/N104I/Q94N/R106L/R155S/R180L/S101N/S121T/S35A/S48A/V306I/V36M/Y195H/Y91F)", "settings": "B*5101 binding affinity (IC50)"}, "[6]": {"biological_target": "HLA-B*5401 (Homo sapiens, UniProt P01889, A329T/C349S/D138N/D201E/E176V/E187T/E204Q/E69G/I76V/K202T/L119W/R155S/R180L/S121T/S35A/S48A/V127L/V306I/V36M/Y140L)", "assay_type": "binding", "settings": "B*5401 binding affinity (IC50)"}, "[7]": {"biological_target": "H-2 Db (Mus musculus, UniProt P01899)", "sequence (P61769 21-119)": "as the sequence (P61769 21-119, further chain) above", "sequence (P01899 25-362)": "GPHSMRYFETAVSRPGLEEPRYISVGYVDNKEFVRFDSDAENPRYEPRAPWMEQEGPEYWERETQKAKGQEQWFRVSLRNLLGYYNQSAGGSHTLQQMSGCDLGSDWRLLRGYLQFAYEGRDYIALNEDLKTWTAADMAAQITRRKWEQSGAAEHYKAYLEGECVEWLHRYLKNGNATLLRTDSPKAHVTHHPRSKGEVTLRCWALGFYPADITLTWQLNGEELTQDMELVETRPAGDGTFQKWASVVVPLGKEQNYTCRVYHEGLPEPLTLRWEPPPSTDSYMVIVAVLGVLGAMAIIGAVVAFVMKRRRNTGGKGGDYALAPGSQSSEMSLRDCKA", "assay_type": "binding, murine", "settings": "Db"}, "[8]": {"biological_target": "HLA-DR DRB4*0101 (DR53) (Homo sapiens, UniProt P01903+P13762, G164S)", "assay_type": "binding", "settings": "read-out: DRB4 *0101"}, "[9]": {"biological_target": "HLA-DR DRB1*0701 (DR7) (Homo sapiens, UniProt P01903+P01911, A100R/A102G/A103Q/D57E/D86V/E43K/F76Y/K127E/L162R/M171V/P40G/Q125H/Q99D/R33Q/R42Y/R54Q/S133A/S66F/T210M/V115G/Y107V/Y59L/Y89S)", "assay_type": "binding"}, "[10]": {"biological_target": "HLA-DR DRB1*1101 (DR11) (Homo sapiens, UniProt P01903+P01911, A100R/A169T/A87E/I96F/K41T/L162R/M171V/P40S/Q125H/Q178H/Q39Y/Q99D/R42S/S66Y/T262R/V115G/W38E)", "sequence (P01903 26-254 limits assumed, other chains not shown)": "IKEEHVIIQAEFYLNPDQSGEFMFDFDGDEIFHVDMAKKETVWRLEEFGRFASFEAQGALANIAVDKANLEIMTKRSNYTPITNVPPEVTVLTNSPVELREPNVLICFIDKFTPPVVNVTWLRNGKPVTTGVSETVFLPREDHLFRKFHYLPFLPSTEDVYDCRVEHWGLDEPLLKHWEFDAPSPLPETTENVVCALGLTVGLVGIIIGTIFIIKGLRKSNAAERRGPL", "assay_type": "binding"}, "[11]": {"biological_target": "HLA-DR DRB3*0101 (DR52) (Homo sapiens, UniProt P01903+P79483)", "assay_type": "binding", "settings": "read-out: DRB3 *0101"}, "[12]": {"biological_target": "HLA-DR DRB5*0101 (DR51) (Homo sapiens, UniProt P01903+Q30154)", "assay_type": "binding"}, "[13]": {"biological_target": "HLA-DR DRB1*1501 (DR15) (Homo sapiens, UniProt P01903+P01911)", "assay_type": "binding", "settings": "read-out: DRBI *1501"}, "[14]": {"biological_target": "HLA-B*5301 (Homo sapiens, UniProt P01889, A329T/A93T/A95T/C349S/D201E/D98Y/E176V/E187L/E204Q/E69T/G107R/I218V/K202T/L105A/L119I/N104I/Q94N/R106L/R155S/R180L/S101N/S121R/S35A/S48A/T118I/V127L/V306I/V36M/Y140S/Y91F)", "assay_type": "binding", "settings": "B*5301 binding affinity (IC50)"}, "[15]": {"biological_target": "HLA-DR DRB1*0401 (DR4) (Homo sapiens, UniProt P01903+P01911, A100K/A169T/F76Y/I96L/K127E/L162R/M171V/N62H/P40V/Q125Y/R42H/S133A/S149N/S66Y/V115G/V209L/W38E)", "assay_type": "binding", "settings": "DRB1 *0401"}},
  "note": "Several values for one entry are separate records, joined by “and”; a condition that tells them apart may be missing. Identical values can stand only once. Like-named read-outs stand apart in the source and are kept apart here. No end group written: not given here.",
  "data": [
    {"compound": "SDSNYYDLLKDLEEG", "values": [
      {"measurement": "IC50", "setting": "[1]; read-out: DQB1*0301", "result": "> 89300", "unit": "nM"}
    ]},
    {"compound": "RPRFRGPGPGF", "values": [
      {"measurement": "IC50", "setting": "[2]", "result": 9.7, "unit": "nM"}
    ]},
    {"compound": "RGPYRAFVAI", "values": [
      {"measurement": "IC50", "setting": "[3]", "result": 1.3, "unit": "nM"}
    ]},
    {"compound": "KGPYRAFVTI", "values": [
      {"measurement": "IC50", "setting": "[3]", "result": 5.8, "unit": "nM"}
    ]},
    {"compound": "RPRGPGPGV", "values": [
      {"measurement": "IC50", "setting": "[2]", "result": 11, "unit": "nM"}
    ]},
    {"compound": "QPRAPIRPI", "values": [
      {"measurement": "IC50", "setting": "[4]", "result": "> 72000", "unit": "nM"},
      {"measurement": "IC50", "setting": "[5]", "result": "> 55000", "unit": "nM"},
      {"measurement": "IC50", "setting": "[6]", "result": "> 100000", "unit": "nM"},
      {"measurement": "IC50", "setting": "[2]", "result": 6770, "unit": "nM"}
    ]},
    {"compound": "CC(C)C[C@H](NC(=O)CNC(=O)[C@H](CCC(N)=O)NC(=O)[C@H](Cc1ccc(O)cc1)NC(=O)[C@@H](NC(=O)[C@H](Cc1ccc(O)cc1)NC(=O)CNC(=O)[C@@H](N)CCCNC(=N)N)C(C)C)C(=O)O", "values": [
      {"measurement": "IC50", "setting": "[7]", "result": "> 44000", "unit": "nM"},
      {"measurement": "IC50", "setting": "[3]", "result": "> 37000", "unit": "nM"}
    ]},
    {"compound": "RGPYRAFKTI", "values": [
      {"measurement": "IC50", "setting": "[3]", "result": 2.3, "unit": "nM"}
    ]},
    {"compound": "RGPARAFVTI", "values": [
      {"measurement": "IC50", "setting": "[3]", "result": 1.04, "unit": "nM"}
    ]},
    {"compound": "RPGPGPGAV", "values": [
      {"measurement": "IC50", "setting": "[2]", "result": 23, "unit": "nM"}
    ]},
    {"compound": "YAAFAAAKTAAAFA", "values": [
      {"measurement": "IC50", "setting": "[8]", "result": 30, "unit": "nM"},
      {"measurement": "IC50", "setting": "[9]; read-out: DRB1 *0701", "result": 34, "unit": "nM"},
      {"measurement": "IC50", "setting": "[1]; read-out: DQB1*0301", "result": "36 nM and 39 nM"},
      {"measurement": "IC50", "setting": "[10]; read-out: DRB1 *1101", "result": 2.6, "unit": "nM"},
      {"measurement": "IC50", "setting": "[11]", "result": 33300, "unit": "nM"},
      {"measurement": "IC50", "setting": "[12]; read-out: DRB5 *0101", "result": 9.5, "unit": "nM"},
      {"measurement": "IC50", "setting": "[13]", "result": "> 4350", "unit": "nM"}
    ]},
    {"compound": "GPGHKARVI", "values": [
      {"measurement": "IC50", "setting": "[4]", "result": "> 72000", "unit": "nM"},
      {"measurement": "IC50", "setting": "[5]", "result": "> 55000", "unit": "nM"},
      {"measurement": "IC50", "setting": "[6]", "result": "> 50000", "unit": "nM"},
      {"measurement": "IC50", "setting": "[2]", "result": 1690, "unit": "nM"}
    ]},
    {"compound": "RGPYRAFATI", "values": [
      {"measurement": "IC50", "setting": "[3]", "result": 2.1, "unit": "nM"}
    ]},
    {"compound": "RGPYRAYVTI", "values": [
      {"measurement": "IC50", "setting": "[3]", "result": 2.1, "unit": "nM"}
    ]},
    {"compound": "STGWNRTIVENLLAN", "values": [
      {"measurement": "IC50", "setting": "[1]; read-out: DQB1*0301", "result": 47100, "unit": "nM"}
    ]},
    {"compound": "(44)YAAAAAAKAAA", "values": [
      {"measurement": "IC50", "setting": "[1]; read-out: DQB1*0301", "result": 26, "unit": "nM"}
    ]},
    {"compound": "RGPYRKFVTI", "values": [
      {"measurement": "IC50", "setting": "[3]", "result": 3.6, "unit": "nM"}
    ]},
    {"compound": "IDVWLGGLDENFLPY", "values": [
      {"measurement": "IC50", "setting": "[1]", "result": "> 19200", "unit": "nM"}
    ]},
    {"compound": "CLKDRRNFDIIPEEIK", "values": [
      {"measurement": "IC50", "setting": "[1]; read-out: DQB1*0301", "result": 19400, "unit": "nM"}
    ]},
    {"compound": "RPRFGPGPGEF", "values": [
      {"measurement": "IC50", "setting": "[2]", "result": 14, "unit": "nM"}
    ]},
    {"compound": "GGAYRLIVF", "values": [
      {"measurement": "IC50", "setting": "[3]", "result": 3.5, "unit": "nM"}
    ]},
    {"compound": "APAAPGPGPGA", "values": [
      {"measurement": "IC50", "setting": "[2]", "result": 811, "unit": "nM"}
    ]},
    {"compound": "CSCC[C@H](NC(=O)[C@@H](NC(=O)[C@H](CCC(=O)O)NC(=O)[C@H](CCSC)NC(=O)[C@H](CC(N)=O)NC(=O)[C@H](CCC(=O)O)NC(=O)[C@H](CC(N)=O)NC(=O)[C@H](CO)NC(=O)[C@H](C)N)[C@@H](C)O)C(=O)O", "values": [
      {"measurement": "IC50", "setting": "[7]", "result": "41 nM and 33 nM"},
      {"measurement": "IC50", "setting": "[3]", "result": "> 37000", "unit": "nM"}
    ]},
    {"compound": "APRGPGPGAL [APRGPGPGAL]", "values": [
      {"measurement": "IC50", "setting": "[2]", "result": 11, "unit": "nM"}
    ]},
    {"compound": "LGFVFTLTV", "values": [
      {"measurement": "IC50", "setting": "[4]", "result": "> 72000", "unit": "nM"},
      {"measurement": "IC50", "setting": "[14]", "result": "> 93000", "unit": "nM"},
      {"measurement": "IC50", "setting": "[2]", "result": 849, "unit": "nM"}
    ]},
    {"compound": "RGPYKAFVTI", "values": [
      {"measurement": "IC50", "setting": "[3]", "result": 13, "unit": "nM"}
    ]},
    {"compound": "AHAAHAAHAAHAAHAA", "values": [
      {"measurement": "IC50", "setting": "[9]; DRB1 *0701", "result": "> 250000", "unit": "nM"},
      {"measurement": "IC50", "setting": "[15]", "result": 80000, "unit": "nM"},
      {"measurement": "IC50", "setting": "[1]", "result": 58, "unit": "nM"},
      {"measurement": "IC50", "setting": "[10]; DRB1 *1101", "result": "≥ 200000", "unit": "nM"},
      {"measurement": "IC50", "setting": "[12]; DRB5 *0101", "result": "≥ 200000", "unit": "nM"}
    ]},
    {"compound": "YPLTFGWCI", "values": [
      {"measurement": "IC50", "setting": "[6]", "result": 79, "unit": "nM"},
      {"measurement": "IC50", "setting": "[2]", "result": 54300, "unit": "nM"}
    ]},
    {"compound": "VPGPGPGL", "values": [
      {"measurement": "IC50", "setting": "[2]", "result": 1520, "unit": "nM"}
    ]},
    {"compound": "AGPYRAFVTI", "values": [
      {"measurement": "IC50", "setting": "[3]", "result": 5, "unit": "nM"}
    ]},
    {"compound": "APAGPGPGAPA", "values": [
      {"measurement": "IC50", "setting": "[2]", "result": 161, "unit": "nM"}
    ]},
    {"compound": "APGPGPGLL", "values": [
      {"measurement": "IC50", "setting": "[2]", "result": 299, "unit": "nM"}
    ]},
    {"compound": "IDVWLGDLAENFLPY", "values": [
      {"measurement": "IC50", "setting": "[1]", "result": "> 44600", "unit": "nM"}
    ]}
  ]
}
